Tests used:
[1] = tested on: circulating levels of luteinizing hormone (LH); assay: Castrated male rat model, circulating luteinizing hormone (LH); assay type: in vivo; conditions: single intravenous 10 mg/kg dose, castrated male Sprague-Dawley rats, 1 hour after dosing
Source text: Vehicle, N=10 rats; Compound n^o 1, N=9 rats.
Vehicle, n=5 rats; Compound n^o 19, n=5 rats.
In humans and rodents, castration is well-precedented to permit heightened, persistent GnRH signaling and consequent elevation of circulating LH. Thus, a castrated rat model is used to provide a broad index for measurement of LH inhibition as a marker of test compound inhibition of the GnRH signaling pathway.
Castrated adult male Sprague-Dawley (SD) rats (150-175 g,) were purchased from Janvier (St Berthevin, France). […] The animals were allowed 2 weeks of postoperative recovery prior to study. Animals were handled on a daily basis. Standard diet and tap water were provided ad libitum. Animal cage litters were changed once a week. On the study day, animals were acclimated to the procedure room for a period of one hour prior to the initiation of the experiment.
Compounds of the invention were formulated as a […] with 90 g/L (2-Hydroxypropyl)-β-CycloDextrin.
After basal sampling (T0) a single dose of compounds of the invention or vehicle was administrated intravenously to rats. Blood was then collected at 60 min post dosing. Blood samples were obtained via tail vein bleed, drawn into EDTA-containing tubes and centrifuged immediately. […] Serum LH levels were determined using radioimmunoas say kit from RIAZEN—Rat LH, Zentech (Liège, Belgium). […]

[2] = tested on: circulating levels of testosterone; assay: Gonad-intact adult male rat, circulating testosterone; assay type: in vivo; conditions: single intravenous 50 mg/kg dose, gonad-intact male Sprague-Dawley rats, over 210 minute test period (AUC)

Question: How did the “circulating LH levels” value [1] turn out when Cc1nc(-c2nnc3n2CCN(C(=O)c2ccc(-c4cccs4)cc2)[C@@H]3C)cs1 [Compound 1, (R)-(8-methyl-3-(2-methylthiazol-4-yl)-5,6-dihydro-[1,2,4]triazolo[4,3-a]pyrazin-7(8H)-yl)(4-(thiophen-2-yl)phenyl)methanone] was run?
Answer: significantly suppressed

Question: And the plasma testosterone levels [2]?
Answer: significantly suppressed

Question: For Cc1csc(-c2nnc3n2CCN(C(=O)c2ccc(-c4cccs4)cc2)[C@@H]3C)n1 [Compound 19, (R)-(8-methyl-3-(4-methylthiazol-2-yl)-5,6-dihydro-[1,2,4]triazolo[4,3-a]pyrazin-7(8H)-yl)(4-(thiophen-2-yl)phenyl)methanone], which “circulating LH levels” value [1] is on record?
Answer: significantly suppressed

Reference: patent US10941151B2, “Chiral N-acyl-5,6,7(8-substituted)-tetrahydro-[1,2,4]triazolo[4,3-a]pyrazines as selective NK-3 receptor antagonists, pharmaceutical composition, methods for use in NK-3 receptor mediated disorders and chiral synthesis thereof” (Ogeda SA, priority 2011, dated 2021)
